How the values were obtained:
[1] = Solubility of the compound in water by HPLC analysis; assay type: physicochemical
[2] = biological target: Phosphatidylinositol 4,5-bisphosphate 3-kinase catalytic subunit alpha isoform (Homo sapiens, UniProt P42336, H1047R); test: Inhibition of p110alpha H1047R mutant in human HCT116 cells assessed as suppression of PKB phosphorylation at Ser473 preincubated for 15 mins followed by insulin stimulation for 5 mins by immunoblot analysis; assay type: cell-based, HCT-116
Phosphatidylinositol 4,5-bisphosphate 3-kinase catalytic subunit alpha isoform, sequence (P42336 whole entry H1047R, canonical isoform): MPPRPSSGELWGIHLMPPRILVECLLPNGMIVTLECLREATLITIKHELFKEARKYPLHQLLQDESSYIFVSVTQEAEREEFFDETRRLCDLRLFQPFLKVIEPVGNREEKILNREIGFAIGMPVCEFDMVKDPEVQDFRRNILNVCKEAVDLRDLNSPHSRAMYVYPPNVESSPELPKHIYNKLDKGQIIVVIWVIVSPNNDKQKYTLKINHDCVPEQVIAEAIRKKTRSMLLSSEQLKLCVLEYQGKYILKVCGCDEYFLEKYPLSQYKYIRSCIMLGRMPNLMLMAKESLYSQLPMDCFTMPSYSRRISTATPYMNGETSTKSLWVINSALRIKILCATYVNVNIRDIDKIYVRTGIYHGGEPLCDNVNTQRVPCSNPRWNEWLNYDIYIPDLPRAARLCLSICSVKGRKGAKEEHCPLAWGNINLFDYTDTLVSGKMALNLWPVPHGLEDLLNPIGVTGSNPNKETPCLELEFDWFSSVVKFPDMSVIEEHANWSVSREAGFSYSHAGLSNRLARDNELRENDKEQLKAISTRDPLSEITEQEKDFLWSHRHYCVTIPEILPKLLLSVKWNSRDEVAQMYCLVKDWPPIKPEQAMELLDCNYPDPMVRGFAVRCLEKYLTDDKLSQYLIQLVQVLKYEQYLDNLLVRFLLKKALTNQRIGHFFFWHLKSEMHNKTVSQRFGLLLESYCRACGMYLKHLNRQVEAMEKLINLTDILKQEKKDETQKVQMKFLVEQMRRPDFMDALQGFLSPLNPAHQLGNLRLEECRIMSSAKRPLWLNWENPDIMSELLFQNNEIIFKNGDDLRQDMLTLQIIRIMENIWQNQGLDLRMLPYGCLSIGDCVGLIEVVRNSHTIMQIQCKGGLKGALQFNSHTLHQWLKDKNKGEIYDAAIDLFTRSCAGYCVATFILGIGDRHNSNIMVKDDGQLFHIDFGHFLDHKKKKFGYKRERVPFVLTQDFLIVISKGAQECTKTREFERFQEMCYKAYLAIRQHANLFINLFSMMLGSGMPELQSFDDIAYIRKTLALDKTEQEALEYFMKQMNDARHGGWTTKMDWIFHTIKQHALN

[3] = Antiproliferative activity against wild type p110alpha expressing human NZOV9 cells after 5 days by [3H]-thymidine incorporation assay; assay type: functional, cell-based
[4] = biological target: T1, Phosphatidylinositol 4,5-bisphosphate 3-kinase catalytic subunit delta isoform (Homo sapiens, UniProt O00329); test: Inhibition of p110delta (unknown origin) using L-alpha phosphatidylinositol as substrate after 1 hr in presence of [gamma33]-ATP by thin layer chromatographic analysis
T1 sequence (O00329 whole entry): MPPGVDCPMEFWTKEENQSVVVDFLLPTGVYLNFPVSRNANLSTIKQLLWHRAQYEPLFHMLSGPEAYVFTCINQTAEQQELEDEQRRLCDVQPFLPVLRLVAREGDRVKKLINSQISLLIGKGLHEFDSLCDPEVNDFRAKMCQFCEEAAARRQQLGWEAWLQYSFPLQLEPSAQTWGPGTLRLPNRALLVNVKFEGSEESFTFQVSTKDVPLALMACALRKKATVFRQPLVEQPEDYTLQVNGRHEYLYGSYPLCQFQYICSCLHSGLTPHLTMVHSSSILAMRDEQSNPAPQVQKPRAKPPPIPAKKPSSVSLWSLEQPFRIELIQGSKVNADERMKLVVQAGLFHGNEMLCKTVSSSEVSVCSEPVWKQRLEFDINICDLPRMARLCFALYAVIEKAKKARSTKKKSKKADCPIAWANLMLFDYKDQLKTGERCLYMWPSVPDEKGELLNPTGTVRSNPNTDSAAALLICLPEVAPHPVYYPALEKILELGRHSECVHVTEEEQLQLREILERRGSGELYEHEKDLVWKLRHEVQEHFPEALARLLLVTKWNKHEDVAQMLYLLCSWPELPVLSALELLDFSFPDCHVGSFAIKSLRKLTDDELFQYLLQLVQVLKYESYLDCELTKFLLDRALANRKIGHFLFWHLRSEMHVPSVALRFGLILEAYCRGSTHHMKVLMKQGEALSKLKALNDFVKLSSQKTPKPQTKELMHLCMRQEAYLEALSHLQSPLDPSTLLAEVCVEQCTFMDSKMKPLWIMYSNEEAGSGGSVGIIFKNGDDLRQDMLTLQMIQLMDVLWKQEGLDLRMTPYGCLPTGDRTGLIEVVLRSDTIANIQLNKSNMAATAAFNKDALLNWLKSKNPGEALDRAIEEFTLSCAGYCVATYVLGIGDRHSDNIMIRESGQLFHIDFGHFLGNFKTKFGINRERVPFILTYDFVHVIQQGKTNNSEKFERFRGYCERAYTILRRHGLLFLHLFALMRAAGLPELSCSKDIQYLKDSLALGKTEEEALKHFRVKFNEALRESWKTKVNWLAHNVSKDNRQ

PI3K p110 beta/p85 alpha = PI3K p110 beta/p85 alpha (Homo sapiens, UniProt P42338); test: Inhibition of recombinant human p110beta/N-terminal His-tagged human p85alpha expressed in baculovirus infected sf cells using L-alpha-phosphatidylinositol as substrate after 1 hr in presence of [gamma33]-ATP by thin layer chromatographic analysis
PI3K p110 beta/p85 alpha, sequence (P27986 whole entry): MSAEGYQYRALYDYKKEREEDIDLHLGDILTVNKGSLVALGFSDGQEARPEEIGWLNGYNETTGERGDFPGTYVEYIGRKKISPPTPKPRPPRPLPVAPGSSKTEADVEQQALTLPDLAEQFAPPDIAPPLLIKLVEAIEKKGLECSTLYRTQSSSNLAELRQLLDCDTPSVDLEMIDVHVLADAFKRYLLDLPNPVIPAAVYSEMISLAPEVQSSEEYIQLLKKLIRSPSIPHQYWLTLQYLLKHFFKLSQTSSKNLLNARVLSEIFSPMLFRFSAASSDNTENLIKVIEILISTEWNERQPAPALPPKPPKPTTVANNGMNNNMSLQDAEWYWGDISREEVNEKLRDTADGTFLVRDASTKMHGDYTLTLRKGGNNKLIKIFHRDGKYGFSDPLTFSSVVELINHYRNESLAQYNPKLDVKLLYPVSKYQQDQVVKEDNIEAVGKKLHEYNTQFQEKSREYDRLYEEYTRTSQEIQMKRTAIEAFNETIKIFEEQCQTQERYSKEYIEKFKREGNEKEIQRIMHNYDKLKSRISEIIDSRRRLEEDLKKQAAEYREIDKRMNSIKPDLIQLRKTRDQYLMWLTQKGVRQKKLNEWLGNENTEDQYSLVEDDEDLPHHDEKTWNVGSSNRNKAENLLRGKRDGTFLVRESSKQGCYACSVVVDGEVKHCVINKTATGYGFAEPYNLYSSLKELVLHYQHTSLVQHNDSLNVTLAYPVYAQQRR
PI3K p110 beta/p85 alpha, sequence (P42338 whole entry): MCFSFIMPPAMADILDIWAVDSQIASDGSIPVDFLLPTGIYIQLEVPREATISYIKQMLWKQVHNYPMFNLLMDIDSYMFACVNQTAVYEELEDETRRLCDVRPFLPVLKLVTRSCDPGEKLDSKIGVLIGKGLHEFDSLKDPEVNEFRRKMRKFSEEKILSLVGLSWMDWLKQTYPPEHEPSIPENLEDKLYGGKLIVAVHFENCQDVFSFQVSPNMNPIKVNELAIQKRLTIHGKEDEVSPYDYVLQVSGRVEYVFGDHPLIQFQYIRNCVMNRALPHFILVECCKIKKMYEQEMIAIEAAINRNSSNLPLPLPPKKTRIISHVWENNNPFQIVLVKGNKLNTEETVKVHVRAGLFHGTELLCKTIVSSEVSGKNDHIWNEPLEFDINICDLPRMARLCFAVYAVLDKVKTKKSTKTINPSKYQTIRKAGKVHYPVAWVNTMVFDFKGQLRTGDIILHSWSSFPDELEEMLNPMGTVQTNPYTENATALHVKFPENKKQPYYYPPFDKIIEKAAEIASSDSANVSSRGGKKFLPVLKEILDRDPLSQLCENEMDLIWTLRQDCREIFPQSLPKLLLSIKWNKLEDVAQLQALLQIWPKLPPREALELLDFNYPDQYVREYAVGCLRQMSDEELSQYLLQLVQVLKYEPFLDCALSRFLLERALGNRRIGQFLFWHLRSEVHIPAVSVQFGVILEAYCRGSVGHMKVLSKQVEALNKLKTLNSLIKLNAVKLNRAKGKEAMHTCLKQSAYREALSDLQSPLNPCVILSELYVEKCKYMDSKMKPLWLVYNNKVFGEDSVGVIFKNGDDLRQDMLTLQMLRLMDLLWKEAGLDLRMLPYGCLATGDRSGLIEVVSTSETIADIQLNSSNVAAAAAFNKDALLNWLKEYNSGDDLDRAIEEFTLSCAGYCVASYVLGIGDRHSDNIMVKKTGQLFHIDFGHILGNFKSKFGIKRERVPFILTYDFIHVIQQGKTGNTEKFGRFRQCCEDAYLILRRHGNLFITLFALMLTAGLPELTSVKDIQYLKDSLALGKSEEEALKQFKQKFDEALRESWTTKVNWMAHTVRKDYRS

[5] = Inhibition of recombinant mouse p110alpha/N-terminal His-tagged human p85alpha expressed in baculovirus infected Sf21 cells using L-alpha-phosphatidylinositol as substrate after 1 hr in presence of [gamma33]-ATP by thin layer chromatographic analysis
[6] = Antiproliferative activity against wild type p110alpha expressing human NZB5 cells after 5 days by [3H]-thymidine incorporation assay; assay type: functional, cell-based
Mus musculus = test: Toxicity in NIH3 mouse assessed as change in body weight at 20 to 40 mg/kg, ip; assay type: organism-based; details: in vivo
[7] = Selectivity ratio of IC50 for p110delta (unknown origin) to IC50 for recombinant mouse p110alpha/N-terminal His-tagged human p85alpha
[8] = Selectivity ratio of IC50 for human p110beta to IC50 for recombinant mouse p110alpha/N-terminal His-tagged human p85alpha

`CN(C)CCCN(C)c1ccc([N+](=O)[O-])cc1S(=O)(=O)N(C)/N=C/c1cnn2ccc(C#N)cc12.Cl` showed a solubility [1] of 1200 µg/mL.
`CN(CCc1cccnc1)c1ccc([N+](=O)[O-])cc1S(=O)(=O)N(C)/N=C/c1cnn2ccc(C#N)cc12.Cl` gave a solubility [1] of 24 µg/mL.
With `CN(CCc1c[nH]cn1)c1ccc([N+](=O)[O-])cc1S(=O)(=O)N(C)/N=C/c1cnn2ccc(C#N)cc12` the IC50 [2] was 67 nM, the IC50 [3] was 57 nM and the IC50 [4] was 88 nM. It also gave an IC50 (PI3K p110 beta/p85 alpha) of 740 nM, an IC50 [5] of 18 nM and an IC50 [6] of 3 nM. For the same compound, the Activity (Mus musculus) was “Toxic”.
With `CN(CCc1c[nH]cn1)c1ccc([N+](=O)[O-])cc1S(=O)(=O)N(C)/N=C/c1cnn2ccc(C#N)cc12.Cl` the solubility [1] was 900 µg/mL.
`CN(C)CCCN(C)c1ccc([N+](=O)[O-])cc1S(=O)(=O)N(C)/N=C/c1cnn2ccc(C#N)cc12` showed an IC50 [2] of 72 nM, an IC50 [3] of 25 nM and an IC50 [4] of 100 nM. The IC50 (PI3K p110 beta/p85 alpha) was 76 nM, the IC50 [5] was 16 nM and the IC50 [6] was 4 nM. For the same compound, the Activity (Mus musculus) was “Toxic”.
In the case of `C/C(=N\N(C)S(=O)(=O)c1cc([N+](=O)[O-])ccc1N(C)Cc1ccccn1)c1cnn2ccc(C#N)cc12`, the IC50 [3] is reported as 2300 nM, the IC50 [4] is reported as 575 nM and the Ratio IC50 [7] is reported as 100. For the same compound, the IC50 (PI3K p110 beta/p85 alpha) was 9400 nM, the Ratio IC50 [8] was 40 and the IC50 [5] was 5.2 nM. For the same compound, the IC50 [6] was 2200 nM.
For `CN(CCc1ccccn1)c1ccc([N+](=O)[O-])cc1S(=O)(=O)N(C)/N=C/c1cnn2ccc(C#N)cc12.Cl`, the solubility [1] was 5.7 µg/mL.
With `CN(CCn1ccnc1)c1ccc([N+](=O)[O-])cc1S(=O)(=O)N(C)/N=C/c1cnn2ccc(C#N)cc12` the IC50 [2] was 111 nM, the IC50 [3] was 45 nM and the IC50 [4] was 100 nM. The IC50 (PI3K p110 beta/p85 alpha) was 150 nM, the IC50 [5] was 31 nM and the IC50 [6] was 5 nM.
`C/C(=N\NS(=O)(=O)c1cc([N+](=O)[O-])ccc1N(C)Cc1ccccn1)c1cnn2ccc(Br)cc12` gave an IC50 [3] of 2800 nM, an IC50 [4] of 292 nM and a Ratio IC50 [7] of 2000. The IC50 (PI3K p110 beta/p85 alpha) was 5600 nM, the Ratio IC50 [8] was 800 and the IC50 [5] was 7.3 nM. For the same compound, the IC50 [6] was 96 nM.
For `CN(CCc1ccncc1)c1ccc([N+](=O)[O-])cc1S(=O)(=O)N(C)/N=C/c1cnn2ccc(C#N)cc12.Cl`, the solubility [1] was 45 µg/mL.
`CN(Cc1ccccn1)c1ccc([N+](=O)[O-])cc1S(=O)(=O)N(C)/N=C/c1cnn2ccc(C#N)cc12` showed an IC50 [3] of 330 nM, an IC50 [4] of 130 nM and an IC50 (PI3K p110 beta/p85 alpha) of 450 nM. For the same compound, the IC50 [5] was 10 nM and the IC50 [6] was 90 nM.
`CN(/N=C/c1cnn2ccc(C#N)cc12)S(=O)(=O)c1cc([N+](=O)[O-])ccc1NCCN1CCOCC1` showed an IC50 [3] greater than 20000 nM, an IC50 [4] of 27 nM and an IC50 (PI3K p110 beta/p85 alpha) greater than 1000 nM. For the same compound, the IC50 [5] was 9 nM and the IC50 [6] was 9400 nM.
With `CN(C)CCN(C)c1ccc([N+](=O)[O-])cc1S(=O)(=O)N(C)/N=C/c1cnn2ccc(C#N)cc12` the IC50 [3] was 55 nM, the IC50 [4] was 230 nM and the IC50 (PI3K p110 beta/p85 alpha) was 670 nM. For the same compound, the IC50 [5] was 46 nM and the IC50 [6] was 49 nM.
With `CN(CCn1ccnc1)c1ccc([N+](=O)[O-])cc1S(=O)(=O)N(C)/N=C/c1cnn2ccc(C#N)cc12.Cl` the solubility [1] was 1000 µg/mL.
Work on `C/C(=N\NS(=O)(=O)c1cc([N+](=O)[O-])ccc1N(C)Cc1ccccn1)c1cnn2ccc(C#N)cc12` yielded an IC50 [3] of 3200 nM, an IC50 [4] of 11 nM and an IC50 (PI3K p110 beta/p85 alpha) of 207 nM. For the same compound, the IC50 [5] was 4.8 nM and the IC50 [6] was 97 nM.
`CN(/N=C/c1cnn2ccc(C#N)cc12)S(=O)(=O)c1cc([N+](=O)[O-])ccc1OCCN1CCOCC1` showed an IC50 [3] of 410 nM, an IC50 [4] of 94 nM and an IC50 (PI3K p110 beta/p85 alpha) of 220 nM. The IC50 [5] was 21 nM and the IC50 [6] was 440 nM.

From ChEMBL document CHEMBL3875196, “Novel pyrazolo[1,5-a]pyridines with improved aqueous solubility as p110α-selective PI3 kinase inhibitors” (Bioorg Med Chem Lett, 2017)
